Tests used:
barnyardgrass = test: Test A barnyardgrass; type: in vivo, Echinochloa crus-galli; details: 0 to 10 scale where 0 is no effect and 10 is complete control
How it was run: (§1)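 Ratings came from visual comparison with untreated plants about eleven days after treatment, scored 0 for no effect through 10 for complete control. Both soil-drench preemergence and runoff-spray postemergence applications were made at the same time.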

crabgrass = test: Test A crabgrass; type: in vivo, Digitaria spp.; details: 0 to 10 scale where 0 is no effect and 10 is complete control
Protocol: Seeds of barnyardgrass (Echinochloa crus-galli), crabgrass (Digitaria spp.), morningglory (Ipomoea spp.), and velvetleaf (Abutilon theophrasti) were planted into a sandy loam soil and treated preemergence by soil drench with test chemicals formulated in a non-phytotoxic solvent mixture which includes a surfactant At the same time, these crop and weed species were also treated postemergence sprayed to runoff, with test chemicals formulated in the same manner.
Plants ranged in height from two to eighteen cm and were in the one to two leaf stage for the postemergence treatment. Treated plants and untreated controls were maintained in a greenhouse for approximately eleven days, after which all treated plants were compared to untreated controls and visually evaluated for injury. Plant response ratings, summarized in Table A, are based on a 0 to 10 scale where 0 is no effect and 10 is complete control.

morningglory = test: Test A morningglory; type: in vivo, Ipomoea spp.; details: 0 to 10 scale where 0 is no effect and 10 is complete control
How it was run: as §1

velvetleaf = test: Test A velvetleaf; type: in vivo, Abutilon theophrasti; details: 0 to 10 scale where 0 is no effect and 10 is complete control
How it was run: as §1

[1] = tested on: Chenopodium album (CHEAL); test: Test F preemergence, alone and in mixture with rimsulfuron, CHEAL; type: in vivo; details: 21 days after treatment, 0-100 scale
Protocol: (§2) Abutilon theophrasti (ABUTH), Chenopodium album (CHEAL), Amaranthus rudis (AMATA), Setaria faberii (SETFA), Panicum dichotomiflorum (PANDI), and Digitaria sanguinalis (DIGSA) were grown from seed in pots of an artificial potting mixture in a greenhouse. Compounds of the present invention were applied at 70 and 105 g ai/ha preemergence. Rimsulfuron was applied at 8.8 and 17.5 g ai/ha. Mixtures of the compounds of the present invention and rimsulfuron were also applied.
(§3) Following application, the plants were maintained by watering as needed. A fertilizer solution of Peter's 20-20-20 (10 pounds/5 gallons of water) plus Sprint 330, a Iron Chelate micronutrient, (113.5 grams/5 gallons of water) was injected into the water with an Anderson fertilizer injection system to provide approximately 219 ppm of nitrogen with each watering. Artificial lighting was used to supplement natural light to produce a 14 hour photoperiod and: an additional one hour light period was used between 1:00 am to 2:00 am for a night interruption. Greenhouse temperatures were targeted for 27° C. in the day and 21° C. at night. At 21 days after treatment, all plants were evaluated for injury as compared to control plants that were sprayed only with non-phytotoxic solvent.
(§4) Colby's equation was used to calculate the expected additive herbicidal effect of the mixtures of Compound 21 and the mixture partners listed above. […]

Amaranthus rudis (AMATA) = test: Test F preemergence, alone and in mixture with rimsulfuron, AMATA; type: in vivo; details: 21 days after treatment, 0-100 scale
How it was run: (§5)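 Greenhouse pot plants treated preemergence with compound at 70 and 105 g ai/ha, rimsulfuron at 8.8 and 17.5 g ai/ha, or mixtures; 27° C day/21° C night, 14 hour photoperiod. Injury scored at 21 days after treatment against solvent-sprayed controls; expected additive effect of mixtures calculated by Colby's equation.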

Setaria faberii (SETFA) = test: Test F preemergence, alone and in mixture with rimsulfuron, SETFA; type: in vivo; details: 21 days after treatment, 0-100 scale
Protocol: as §2, §3, §4

[2] = tested on: Panicum dichotomiflorum (PANDI); test: Test F preemergence, alone and in mixture with rimsulfuron, PANDI; type: in vivo; details: 21 days after treatment, 0-100 scale
How it was run: as §5

[3] = tested on: Digitaria sanguinalis (DIGSA); test: Test F preemergence, alone and in mixture with rimsulfuron, DIGSA; type: in vivo; details: 21 days after treatment, 0-100 scale
Protocol: as §2, §3, §4

certain weeds = test: Test F overall statement on synergism with rimsulfuron (Colby's equation); type: in vivo; details: combinations with rimsulfuron, preemergence
Protocol: as §3, with “Abutilon theophrasti (ABUTH), Chenopodium album (CHEAL), Amaranthus rudis (AMATA), Setaria […]), Panicum dichotomiflorum (PANDI), and Digitaria sanguinalis (DIGSA) were grown from seed in pots of an artificial potting mixture in a greenhouse. Compounds of the present invention were applied at 70 and 105 g ai/ha preemergence. Rimsulfuron was applied at 8.8 and 17.5 g ai/ha. Mixtures of the compounds of the present invention and rimsulfuron were also applied. Following” for “Following”, “solvent. […] Colby's equation was used to calculate the expected additive herbicidal effect of the mixtures of Compound 21 and the mixture partners listed above. […]” for “solvent.”

[4] = Alone: Cmpd. rate 70, Rimsulfuron 0
[5] = Alone: Cmpd. rate 105, Rimsulfuron 0

CCN(CC)C(=O)n1oc(=O)n(-c2c(C)cccc2C)c1=O [Compound 2]
Plant response rating, Barnyardgrass (barnyardgrass; Postemergence, Rate 1000 g/ha): 8
Plant response rating, Barnyardgrass (barnyardgrass; Pre-emergence, Rate 2000 g/ha): 9
Plant response rating, Crabgrass (crabgrass; Postemergence, Rate 1000 g/ha): 0
Plant response rating, Crabgrass (crabgrass; Pre-emergence, Rate 2000 g/ha): 2
Plant response rating, Morningglory (morningglory; Postemergence, Rate 1000 g/ha): 0
Plant response rating, Morningglory (morningglory; Pre-emergence, Rate 2000 g/ha): 0
Plant response rating, Velvetleaf (velvetleaf; Postemergence, Rate 1000 g/ha): 0
Plant response rating, Velvetleaf (velvetleaf; Pre-emergence, Rate 2000 g/ha): 0

CC(C)N(C(=O)n1oc(=O)n(-c2ccc(Cl)cc2Cl)c1=O)c1ccc(F)cc1 [Compound 7, 4-(2,4-Dichlorophenyl)-N-(4-fluorophenyl)-N-(1-methylethyl)-3,5-dioxo-1,2,4-oxadiazolidine-2-carboxamide]
melting point: 57 to 60 °C

CC(C)N(C(=O)n1oc(=O)n(C2CC2)c1=O)c1ccc(F)cc1 [Compound 242]
CHEAL Observed [1, 4]: 30%
CHEAL Observed [1, 5]: 100%
AMATA Observed (Amaranthus rudis (AMATA); [4]): 20%
AMATA Observed (Amaranthus rudis (AMATA); [5]): 55%
SETFA Observed (Setaria faberii (SETFA); [4]): 60%
SETFA Observed (Setaria faberii (SETFA); [5]): 75%
PANDI Observed [2, 4]: 60%
PANDI Observed [2, 5]: 80%
DIGSA Observed [3, 4]: 100%
DIGSA Observed [3, 5]: 100%
Weed control of combination with rimsulfuron compared with expectation from Colby's equation (certain weeds): better control of certain weeds than expected
